Measurements from ChEMBL document CHEMBL5058645, “Data for DCP probe JNJ-6204” (2022).
Each block holds one compound with its values, some of them ahead of it. Activity calls are given as the source filed them. The calls are words filed in the database; no cut-off is given here.

Legend:
[1] = target: Serine/threonine-protein kinase DCLK2 (Homo sapiens, UniProt Q8N568); experiment: DCAMKL2(h) Kinase panel
[2] = target: Mitogen-activated protein kinase 14 (Homo sapiens, UniProt Q16539); experiment: SAPK2a(h) Kinase panel
[3] = target: TRAF2 and NCK-interacting protein kinase (Homo sapiens, UniProt Q9UKE5); experiment: TNIK(h) Kinase panel
[4] = GPCRScan assay: inhibition of GABA/PBR; parameters: species or system Rattus norvegicus; radioligand conc. used [nm] 0.3 – 2.0, parental cells brain tissue
[5] = target: Casein kinase I isoform alpha (Homo sapiens, UniProt P48729); experiment: CK1alpha(h) Kinase panel
[6] = target: Serine/threonine-protein kinase 38-like (Homo sapiens, UniProt Q9Y2H1); experiment: NDR2(h) Kinase panel
[7] = target: Mitogen-activated protein kinase 11 (Homo sapiens, UniProt Q15759); experiment: SAPK2b(h) Kinase panel
[8] = target: T1, Casein kinase I isoform epsilon (Homo sapiens, UniProt P49674); experiment: ADP-Glo
[9] = target: 5'-AMP-activated protein kinase catalytic subunit alpha-2 (Homo sapiens, UniProt P54646); experiment: AMPKalpha2(h) Kinase panel
[10] = target: T1, Casein kinase I isoform epsilon; experiment: CK1epsilon(h) Kinase panel
TGF-beta receptor type-1 = TGF-beta receptor type-1 (Homo sapiens, UniProt P36897); experiment: TGFBR1(h) Kinase panel
[11] = target: Macrophage colony-stimulating factor 1 receptor (Homo sapiens, UniProt P07333); experiment: Fms(h) Kinase panel
[12] = target: 5-hydroxytryptamine receptor 7 (Homo sapiens) (UniProt P34969); settings: Compound concentration 10.0 uM
[13] = target: 5-hydroxytryptamine receptor 1A (Homo sapiens, UniProt P08908); experiment: GPCRScan assay: inhibition of 5-HT1A; parameters: radioligand conc. used [nm] 0.5 – 1.0, parental cells stable CHO
[14] = target: Histamine H3 receptor (Homo sapiens) (UniProt Q9Y5N1); settings: Compound concentration 10.0 uM
D(3) dopamine receptor [15] = target: T2, D(3) dopamine receptor (Homo sapiens, UniProt P35462); settings: Compound concentration 10.0 uM
[16] = target: T3, Sodium-dependent dopamine transporter (Homo sapiens, UniProt Q01959); settings: Compound concentration 10.0 uM
[17] = target: Alpha-1D adrenergic receptor (Homo sapiens) (UniProt P25100); settings: Compound concentration 10.0 uM
[18] = target: Alpha-1B adrenergic receptor (Homo sapiens) (UniProt P35368); settings: Compound concentration 10.0 uM
[19] = target: Sodium-dependent serotonin transporter (Homo sapiens) (UniProt P31645); settings: Compound concentration 10.0 uM
[20] = target: D(2) dopamine receptor (Homo sapiens) (UniProt P14416); settings: Compound concentration 10.0 uM
[21] = target: 5-hydroxytryptamine receptor 2B (Homo sapiens) (UniProt P41595); settings: Compound concentration 10.0 uM
[22] = target: GABA-A receptor; anion channel (Rattus norvegicus) (UniProt O09028+P15431+P18506+P18508+P19969+P20236+P23574+P23576+P28471+P28473+P30191+P62813+P63079+P63138+Q91ZM7+Q9ES14); settings: Compound concentration 10.0 uM
[23] = target: Alpha-2B adrenergic receptor (Homo sapiens) (UniProt P18089); settings: Compound concentration 10.0 uM
[24] = target: Beta-3 adrenergic receptor (Homo sapiens) (UniProt P13945); settings: Compound concentration 10.0 uM
[25] = target: Beta-1 adrenergic receptor (Homo sapiens) (UniProt P08588); settings: Compound concentration 10.0 uM
[26] = target: Kappa-type opioid receptor (Homo sapiens) (UniProt P41145); settings: Compound concentration 10.0 uM
[27] = target: Muscarinic acetylcholine receptor M2 (Homo sapiens) (UniProt P08172); settings: Compound concentration 10.0 uM
[28] = target: 5-hydroxytryptamine receptor 3A (Homo sapiens) (UniProt P46098); settings: Compound concentration 10.0 uM
[29] = target: Muscarinic acetylcholine receptor M1 (Homo sapiens) (UniProt P11229); settings: Compound concentration 10.0 uM
[30] = target: 5-hydroxytryptamine receptor 1B (Homo sapiens) (UniProt P28222); settings: Compound concentration 10.0 uM
[31] = target: Sodium-dependent noradrenaline transporter (Homo sapiens) (UniProt P23975); settings: Compound concentration 10.0 uM
D(3) dopamine receptor [32] = target: T2, D(3) dopamine receptor; experiment: GPCRScan assay: inhibition of D3; parameters: radioligand conc. used [nm] 0.5 – 1.8, parental cells HEKT
[33] = target: 5-hydroxytryptamine receptor 2A (Homo sapiens) (UniProt P28223); settings: Compound concentration 10.0 uM
[34] = target: Alpha-2C adrenergic receptor (Homo sapiens) (UniProt P18825); settings: Compound concentration 10.0 uM
[35] = target: Muscarinic acetylcholine receptor M4 (Homo sapiens) (UniProt P08173); settings: Compound concentration 10.0 uM
[36] = target: Muscarinic acetylcholine receptor M3 (Homo sapiens) (UniProt P20309); settings: Compound concentration 10.0 uM
[37] = target: Delta-type opioid receptor (Homo sapiens) (UniProt P41143); settings: Compound concentration 10.0 uM
[38] = target: D(1A) dopamine receptor (Homo sapiens) (UniProt P21728); settings: Compound concentration 10.0 uM
[39] = target: 5-hydroxytryptamine receptor 2C (Homo sapiens) (UniProt P28335); settings: Compound concentration 10.0 uM
[40] = target: Histamine H1 receptor (Homo sapiens) (UniProt P35367); settings: Compound concentration 10.0 uM
[41] = target: Histamine H4 receptor (Homo sapiens) (UniProt Q9H3N8); settings: Compound concentration 10.0 uM
[42] = target: T3, Sodium-dependent dopamine transporter; experiment: GPCRScan assay: inhibition of DAT; parameters: radioligand conc. used [nm] 3.6 – 16.0, parental cells stable HEK
[43] = target: Muscarinic acetylcholine receptor M5 (Homo sapiens) (UniProt P08912); settings: Compound concentration 10.0 uM
[44] = target: Mu-type opioid receptor (Homo sapiens) (UniProt P35372); settings: Compound concentration 10.0 uM
[45] = target: Alpha-2A adrenergic receptor (Homo sapiens) (UniProt P08913); settings: Compound concentration 10.0 uM
[46] = target: 5-hydroxytryptamine receptor 1E (Homo sapiens) (UniProt P28566); settings: Compound concentration 10.0 uM
[47] = target: 5-hydroxytryptamine receptor 5A (Homo sapiens) (UniProt P47898); settings: Compound concentration 10.0 uM
[48] = target: Histamine H2 receptor (Homo sapiens) (UniProt P25021); settings: Compound concentration 10.0 uM
[49] = target: D(1B) dopamine receptor (Homo sapiens) (UniProt P21918); settings: Compound concentration 10.0 uM
[50] = target: Sigma intracellular receptor 2 (Homo sapiens) (UniProt Q5BJF2); settings: Compound concentration 10.0 uM
[51] = target: Sigma non-opioid intracellular receptor 1 (Homo sapiens) (UniProt Q99720); settings: Compound concentration 10.0 uM
[52] = target: 5-hydroxytryptamine receptor 1D (Homo sapiens) (UniProt P28221); settings: Compound concentration 10.0 uM
[53] = target: D(4) dopamine receptor (Homo sapiens) (UniProt P21917); settings: Compound concentration 10.0 uM
[54] = target: Casein kinase I isoform delta (Homo sapiens, UniProt P48730); experiment: BRET whole cell binding assay

T3 sequence (Q01959 whole entry): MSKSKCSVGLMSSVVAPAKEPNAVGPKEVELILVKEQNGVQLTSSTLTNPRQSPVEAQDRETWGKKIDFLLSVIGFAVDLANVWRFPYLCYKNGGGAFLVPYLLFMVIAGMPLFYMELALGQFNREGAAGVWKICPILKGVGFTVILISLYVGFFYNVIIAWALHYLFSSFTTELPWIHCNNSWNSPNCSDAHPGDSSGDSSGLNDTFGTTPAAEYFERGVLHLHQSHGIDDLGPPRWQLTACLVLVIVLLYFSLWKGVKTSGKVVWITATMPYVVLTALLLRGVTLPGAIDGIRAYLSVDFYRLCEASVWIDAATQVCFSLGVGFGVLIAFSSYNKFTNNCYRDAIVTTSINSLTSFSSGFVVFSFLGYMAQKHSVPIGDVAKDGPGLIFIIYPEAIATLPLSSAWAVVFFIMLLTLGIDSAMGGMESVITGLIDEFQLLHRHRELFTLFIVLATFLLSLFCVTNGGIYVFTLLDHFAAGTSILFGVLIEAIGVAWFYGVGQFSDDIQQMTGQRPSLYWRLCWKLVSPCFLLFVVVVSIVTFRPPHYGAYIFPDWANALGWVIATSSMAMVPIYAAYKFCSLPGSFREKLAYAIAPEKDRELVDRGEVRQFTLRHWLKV
T1 sequence (P49674 whole entry, canonical isoform): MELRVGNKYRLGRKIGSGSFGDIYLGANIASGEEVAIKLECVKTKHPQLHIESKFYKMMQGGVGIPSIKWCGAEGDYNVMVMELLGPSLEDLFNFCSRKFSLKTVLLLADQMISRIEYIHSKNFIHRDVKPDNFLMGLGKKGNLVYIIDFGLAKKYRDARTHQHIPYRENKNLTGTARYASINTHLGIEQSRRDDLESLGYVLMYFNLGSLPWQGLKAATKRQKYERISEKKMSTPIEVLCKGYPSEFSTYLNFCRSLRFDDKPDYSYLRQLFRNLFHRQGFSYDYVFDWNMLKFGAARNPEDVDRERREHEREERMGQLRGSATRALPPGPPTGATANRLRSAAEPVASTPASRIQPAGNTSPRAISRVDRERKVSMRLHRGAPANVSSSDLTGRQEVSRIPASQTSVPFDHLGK
T2 sequence (P35462 whole entry): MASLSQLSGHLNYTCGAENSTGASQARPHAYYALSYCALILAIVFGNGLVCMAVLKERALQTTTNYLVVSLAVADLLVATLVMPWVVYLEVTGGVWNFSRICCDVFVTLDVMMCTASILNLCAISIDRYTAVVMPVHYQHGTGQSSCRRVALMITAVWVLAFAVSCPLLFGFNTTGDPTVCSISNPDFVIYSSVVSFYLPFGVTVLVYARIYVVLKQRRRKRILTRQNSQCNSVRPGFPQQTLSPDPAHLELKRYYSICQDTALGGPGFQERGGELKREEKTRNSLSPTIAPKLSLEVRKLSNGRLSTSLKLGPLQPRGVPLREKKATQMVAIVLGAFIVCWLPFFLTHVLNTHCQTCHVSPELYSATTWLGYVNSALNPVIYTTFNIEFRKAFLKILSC
Sequence of Casein kinase I isoform alpha (P48729 whole entry, canonical isoform): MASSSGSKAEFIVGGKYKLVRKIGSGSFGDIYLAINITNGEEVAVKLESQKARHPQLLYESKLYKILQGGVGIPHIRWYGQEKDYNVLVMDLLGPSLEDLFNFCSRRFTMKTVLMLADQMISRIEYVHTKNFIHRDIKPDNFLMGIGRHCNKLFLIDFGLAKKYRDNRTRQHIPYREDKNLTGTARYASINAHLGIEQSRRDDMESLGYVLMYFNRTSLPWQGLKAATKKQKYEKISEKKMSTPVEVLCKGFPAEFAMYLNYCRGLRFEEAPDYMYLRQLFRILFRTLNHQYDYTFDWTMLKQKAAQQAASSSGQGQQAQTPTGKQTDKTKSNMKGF
Sequence of Alpha-2A adrenergic receptor (Homo sapiens) (P08913 whole entry): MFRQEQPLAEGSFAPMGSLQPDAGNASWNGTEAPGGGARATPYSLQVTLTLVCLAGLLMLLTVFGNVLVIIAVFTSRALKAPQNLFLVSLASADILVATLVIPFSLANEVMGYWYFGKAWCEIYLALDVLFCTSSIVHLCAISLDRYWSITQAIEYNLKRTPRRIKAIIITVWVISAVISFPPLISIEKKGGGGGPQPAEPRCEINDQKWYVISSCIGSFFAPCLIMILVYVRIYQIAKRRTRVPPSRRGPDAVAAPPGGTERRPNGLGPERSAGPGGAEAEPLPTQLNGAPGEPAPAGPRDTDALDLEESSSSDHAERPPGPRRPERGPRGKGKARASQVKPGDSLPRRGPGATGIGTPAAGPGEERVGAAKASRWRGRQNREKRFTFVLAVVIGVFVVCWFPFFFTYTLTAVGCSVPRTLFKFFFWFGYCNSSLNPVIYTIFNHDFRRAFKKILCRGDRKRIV
Sequence of TRAF2 and NCK-interacting protein kinase (Q9UKE5 whole entry): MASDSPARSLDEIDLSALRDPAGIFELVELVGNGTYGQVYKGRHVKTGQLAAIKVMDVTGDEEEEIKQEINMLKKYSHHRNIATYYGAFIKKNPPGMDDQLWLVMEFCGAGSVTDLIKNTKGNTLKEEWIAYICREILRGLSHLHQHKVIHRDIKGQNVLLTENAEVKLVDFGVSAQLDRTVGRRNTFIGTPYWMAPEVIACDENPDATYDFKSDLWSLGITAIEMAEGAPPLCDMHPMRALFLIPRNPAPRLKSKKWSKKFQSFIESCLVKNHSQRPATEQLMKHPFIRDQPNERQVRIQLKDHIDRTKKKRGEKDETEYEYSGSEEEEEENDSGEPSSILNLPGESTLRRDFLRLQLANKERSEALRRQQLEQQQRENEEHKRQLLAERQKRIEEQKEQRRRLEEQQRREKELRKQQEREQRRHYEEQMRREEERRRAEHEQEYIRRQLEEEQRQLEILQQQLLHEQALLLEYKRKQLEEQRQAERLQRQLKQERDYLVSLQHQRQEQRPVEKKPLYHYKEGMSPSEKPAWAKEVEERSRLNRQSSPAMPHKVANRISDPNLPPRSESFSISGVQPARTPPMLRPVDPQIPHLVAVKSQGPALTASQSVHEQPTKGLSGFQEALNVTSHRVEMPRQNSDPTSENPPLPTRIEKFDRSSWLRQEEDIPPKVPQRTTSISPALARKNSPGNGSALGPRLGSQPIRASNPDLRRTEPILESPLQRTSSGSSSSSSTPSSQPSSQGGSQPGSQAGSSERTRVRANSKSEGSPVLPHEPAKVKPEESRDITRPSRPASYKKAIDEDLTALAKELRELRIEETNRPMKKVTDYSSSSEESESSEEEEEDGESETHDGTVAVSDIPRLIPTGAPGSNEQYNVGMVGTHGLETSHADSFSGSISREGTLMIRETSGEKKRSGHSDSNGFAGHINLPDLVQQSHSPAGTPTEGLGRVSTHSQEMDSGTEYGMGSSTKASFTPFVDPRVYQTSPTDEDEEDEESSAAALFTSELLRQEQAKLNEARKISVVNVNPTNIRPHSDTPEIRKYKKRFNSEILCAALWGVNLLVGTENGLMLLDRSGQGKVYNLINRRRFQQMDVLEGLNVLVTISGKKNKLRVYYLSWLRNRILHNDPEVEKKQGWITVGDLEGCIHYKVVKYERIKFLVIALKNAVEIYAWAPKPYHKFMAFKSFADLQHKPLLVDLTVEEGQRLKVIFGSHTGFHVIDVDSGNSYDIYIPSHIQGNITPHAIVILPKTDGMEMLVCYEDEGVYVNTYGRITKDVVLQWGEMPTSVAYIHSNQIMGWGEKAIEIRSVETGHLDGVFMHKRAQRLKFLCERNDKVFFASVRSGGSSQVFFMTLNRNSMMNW
Sequence of 5-hydroxytryptamine receptor 7 (Homo sapiens) (P34969 whole entry): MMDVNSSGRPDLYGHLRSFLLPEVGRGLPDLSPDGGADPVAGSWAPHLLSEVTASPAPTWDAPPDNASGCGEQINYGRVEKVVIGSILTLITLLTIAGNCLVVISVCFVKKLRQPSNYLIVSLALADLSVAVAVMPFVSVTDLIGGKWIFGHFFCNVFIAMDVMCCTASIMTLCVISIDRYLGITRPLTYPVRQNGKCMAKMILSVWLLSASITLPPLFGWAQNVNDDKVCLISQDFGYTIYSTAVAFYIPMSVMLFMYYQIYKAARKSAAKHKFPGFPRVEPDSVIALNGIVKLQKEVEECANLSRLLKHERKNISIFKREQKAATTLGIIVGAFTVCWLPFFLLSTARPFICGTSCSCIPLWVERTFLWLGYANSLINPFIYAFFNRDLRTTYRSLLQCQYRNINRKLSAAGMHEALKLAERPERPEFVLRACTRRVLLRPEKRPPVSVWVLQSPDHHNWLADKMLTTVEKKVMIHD
Sequence of 5-hydroxytryptamine receptor 2A (Homo sapiens) (P28223 whole entry): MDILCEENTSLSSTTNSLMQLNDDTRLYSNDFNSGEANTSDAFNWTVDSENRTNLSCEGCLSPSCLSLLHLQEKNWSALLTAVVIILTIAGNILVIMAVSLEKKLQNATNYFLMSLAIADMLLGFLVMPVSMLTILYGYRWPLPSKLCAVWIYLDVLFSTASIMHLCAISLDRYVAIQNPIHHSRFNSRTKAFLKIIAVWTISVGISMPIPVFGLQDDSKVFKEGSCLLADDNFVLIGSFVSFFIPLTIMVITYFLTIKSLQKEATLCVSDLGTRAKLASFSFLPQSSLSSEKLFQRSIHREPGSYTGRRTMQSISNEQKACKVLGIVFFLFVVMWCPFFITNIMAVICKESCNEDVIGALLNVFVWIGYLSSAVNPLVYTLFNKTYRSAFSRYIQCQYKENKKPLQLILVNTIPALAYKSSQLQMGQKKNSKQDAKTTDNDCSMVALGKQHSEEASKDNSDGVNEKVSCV
Sequence of Histamine H2 receptor (Homo sapiens) (P25021 whole entry): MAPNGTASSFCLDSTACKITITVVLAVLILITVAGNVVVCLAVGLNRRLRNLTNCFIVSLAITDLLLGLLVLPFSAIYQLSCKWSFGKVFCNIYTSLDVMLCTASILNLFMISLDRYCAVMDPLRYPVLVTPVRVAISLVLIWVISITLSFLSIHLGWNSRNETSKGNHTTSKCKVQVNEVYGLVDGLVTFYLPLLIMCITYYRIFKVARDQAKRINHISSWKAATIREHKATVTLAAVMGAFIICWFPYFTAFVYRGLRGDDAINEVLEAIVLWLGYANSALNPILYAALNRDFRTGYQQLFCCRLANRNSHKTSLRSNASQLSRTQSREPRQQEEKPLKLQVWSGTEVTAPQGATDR

IC50 [1]: > 10 µM
IC50 [2]: > 10 µM
IC50 [3]: 1.7 µM
Ki [4]: 4.53 µM
pKi [4]: 5.34
IC50 [5]: 0.419 µM
IC50 [6]: > 10 µM
IC50 [7]: > 10 µM
IC50 [8]: 0.137 µM (active)
IC50 [9]: > 10 µM
IC50 [10]: 0.137 µM
IC50 (TGF-beta receptor type-1): > 10 µM
IC50 [11]: > 10 µM
SMILES: [2H]C([2H])([2H])C1(C([2H])([2H])[2H])Cn2nc(-c3ccc(F)cn3)c(-c3ccnc4[nH]ncc34)c2CO1

inhibition [12]: 2.11%
Ki [13]: 7.66 µM
inhibition [14]: -2.3%
inhibition (D(3) dopamine receptor [15]): 71%
inhibition [16]: 72.5%
inhibition [17]: 12.7%
inhibition [18]: 35.2%
inhibition [19]: -2.06%
inhibition [20]: 16.9%
inhibition [21]: 9.41%
inhibition [22]: 18.2%
inhibition [23]: 9.43%
inhibition [24]: 12.3%
inhibition [25]: 14.9%
inhibition [26]: 5.15%
inhibition [27]: -5.08%
inhibition [28]: 1.67%
inhibition [29]: 14.2%
inhibition [30]: 3.69%
inhibition [31]: 3.24%
Ki (D(3) dopamine receptor [32]): 8.63 µM
inhibition [33]: 0.96%
inhibition [34]: -5.28%
inhibition [35]: 0.72%
inhibition [36]: 0.71%
inhibition [37]: -4.05%
inhibition [38]: 5.63%
inhibition [39]: 2.17%
inhibition [40]: 12.5%
inhibition [41]: 31.6%
Ki ([42]; read-out: Ki): 7.22 µM
Ki ([42]; read-out: pKi (converted)): 7.24 µM
inhibition [43]: 12.5%
inhibition [44]: -0.34%
inhibition [45]: 19.6%
inhibition [46]: 11%
inhibition [47]: 5.31%
inhibition [48]: -7.88%
inhibition [49]: 3.57%
inhibition [50]: -2.71%
inhibition [51]: 13%
inhibition [52]: 11.3%
inhibition [53]: 48.1%
IC50 [54]: > 10 µM (not active)
SMILES: Cn1cc2c(-c3c(-c4ccc(F)cn4)nn4c3COC(C)(C)C4)ccnc2n1
